Laboratory results reported in patent US12480163B2, “Compositions and methods for identification assessment, prevention, and treatment of Ewing sarcoma using TP53 dependency biomarkers and modulators” (Dana-Farber Cancer Institute, Inc., priority 2018, dated 2025).
“Also recorded” adds a separate entry of the source.

Legend:
[1] = target: T1, Wip1 (Homo sapiens, UniProt O15297); assay: Western immunoblotting of Wip1 and pSer15-p53; type: cell-based; details: Western blot
T1 construct: Whole-cell lysates were extracted in cell lysis buffer (Cell Signaling); endogenous in cells; host or cells: TP53 wild-type Ewing sarcoma cell lines
T1 sequence (O15297 1-605): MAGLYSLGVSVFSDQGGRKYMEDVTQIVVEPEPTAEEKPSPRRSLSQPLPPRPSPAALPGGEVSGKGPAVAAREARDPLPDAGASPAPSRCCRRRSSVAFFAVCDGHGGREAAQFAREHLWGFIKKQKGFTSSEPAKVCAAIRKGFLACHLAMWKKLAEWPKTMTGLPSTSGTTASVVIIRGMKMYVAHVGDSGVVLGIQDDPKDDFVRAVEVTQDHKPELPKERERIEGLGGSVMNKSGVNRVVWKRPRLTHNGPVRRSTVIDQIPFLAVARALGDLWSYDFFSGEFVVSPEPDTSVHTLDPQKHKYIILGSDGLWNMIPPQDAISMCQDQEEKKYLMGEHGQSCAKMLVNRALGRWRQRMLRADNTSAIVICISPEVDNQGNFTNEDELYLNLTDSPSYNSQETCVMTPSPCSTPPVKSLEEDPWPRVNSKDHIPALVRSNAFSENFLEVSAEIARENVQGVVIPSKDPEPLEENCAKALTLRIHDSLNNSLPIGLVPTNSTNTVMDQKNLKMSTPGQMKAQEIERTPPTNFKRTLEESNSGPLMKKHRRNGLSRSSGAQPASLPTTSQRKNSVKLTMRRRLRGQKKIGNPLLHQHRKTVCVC
Procedure: (§1) Whole-cell lysates were extracted in cell lysis buffer (Cell Signaling) supplemented with EDTA-free protease inhibitors and PhosSTOP™ phosphatase inhibitors (Roche). Western immunoblotting was performed using standard techniques. Primary antibodies used included anti-MDM2 (ab178938; Abcam), anti-MDM2 (86934; Cell Signaling), anti-MDM4 (A300-287A; Bethyl Laboratories), anti-p53 (2527S; Cell Signaling), anti-p21 (2946S; Cell Signaling), anti-Vinculin (18058; Abcam), anti-Wip1 (A300-664A; Bethyl Laboratories), anti-pSer15-p53 (9284; Cell Signaling), anti-USP7 (A300-033A; Bethyl Laboratories), and anti-Tubulin (cp06; CalBiochem).

[2] = tested on: TP53 knockout cells; assay: CellTiter-Glo cell viability assay, TP53 knockout cells; type: cell-based; details: TP53 knockout cells vs control cells, treated for 3 d
Procedure: Lentivirus was produced by transfecting HEK-293T cells with the pLentiV2 vector (Addgene plasmid 52961) and the packaging plasmids pCMV8.9 and pCMV-VSVG according to the FuGENER 6 (Roche) protocol. For lentiviral transduction, Ewing sarcoma cells were incubated with 2 ml of virus and 8 μg/ml of polybrene (Sigma-Aldrich). Cells were selected in puromycin (Sigma-Aldrich) 48 h after infection for single knockout experiments. For dual knockout experiments, PPM1D, USP7, and MDM4 sgRNA sequences were cloned into a LentiV2 vector with a blasticidin selection marker (Addgene plasmid 83480).
d. sgRNA Sequences sgRNAs were designed using the Broad Institute's sgRNA designer tool. The following sequences were used as control or to target the respective genes: control sgRNA, 5′-[…]-3′ (SEQ ID NO: 125); sgMDM2 2: 5′-[…]-3′ (SEQ ID NO: 126); sgMDM2 5: 5′-[…]-3′ (SEQ ID NO: 127); sgMDM4 4: 5′-[…]-3′ (SEQ ID NO: 128); sgMDM4 6: 5′-[…]-3′ (SEQ ID NO: 129); sgUSP7 1: 5′-[…]-3′ (SEQ ID NO: 130); sgUSP7 2: 5′-ACCATACCCAAATTATTC CG-3′ (SEQ ID NO: 131); sgPPMID 1: 5′-[…]-3′ (SEQ ID NO: 132); sgPPMID 2: 5′-[…]-3′ (SEQ ID NO: 133); sgTP53 1: 5′-[…]-3′ (SEQ ID NO: 134); sgTP53 2: 5′-[…]-3′ (SEQ ID NO: 135); sgTP53 4: 5′-[…]-3′ (SEQ ID NO: 136); and sgTP53 5: 5′-[…]-3′ (SEQ ID NO: 137). e. Protein Extraction and Immunoblotting
(§2) Cell viability was assessed using the CellTiter-Glo® Luminescent Cell Viability Assay (Promega). Viability assays were performed after Ewing sarcoma cell lines were infected with sgRNAs targeting TP53, MDM2, MDM4, PPM1D, or USP7 or treated with ATSP-7041, ATSP-7342, GSK2830371, P5091, XL-188, or vehicle control.

[3] = tested on: TP53 wild-type Ewing sarcoma cell lines; assay: Annexin V staining, flow cytometry (cell death); type: cell-based; details: TC32 and CHLA258; 2 d ATSP-7041 (2 μM, 4 μM) or P5091 (6.5 μM, 8 μM), 3 d GSK2830371 (15 μM)
Procedure: Cell death was measured using flow cytometric analysis of Annexin V staining according to the manufacturer's instructions (eBioscience). Data analysis was completed using Flowjo 7.6 software (Treestar).

[4] = tested on: TP53 wild-type Ewing sarcoma cell lines; assay: CellTiter-Glo cell viability assay, TP53 wild-type Ewing sarcoma cell lines; type: cell-based; details: treated for 3 d
Procedure: as §2

[5] = tested on: MDM2, p53, and p21 protein levels; assay: Western immunoblotting of MDM2, p53, p21 in TP53 wild-type Ewing sarcoma cell lines; type: cell-based; details: for MDM2 protein levels, combination of ATSP-7041 and P5091 compared with ATSP-7041 alone: TC32 and TC138 cells, 2 d
Procedure: as §1

[6] = tested on: MDM2 protein levels; assay: Western immunoblotting of MDM2 in TP53 mutated cell lines A673 and EWS502; type: cell-based; details: TP53 mutated cell lines A673 and EWS502, 1 μM; 4 h
Procedure: as §1

[7] = target: T2, p53-MDM4 complex (Homo sapiens, UniProt O15151); assay: MDM4 immunoprecipitation from TC32 cell lysates, p53 and MDM4 Western blot; type: binding; details: TC32 lysates after RG7388 pre-treatment, 20 μM compound
T2 construct: endogenous in cells; host or cells: TC32 Ewing sarcoma cells (TP53 wild-type), lysed in NP-40 buffer
T2 sequence (O15151 1-490): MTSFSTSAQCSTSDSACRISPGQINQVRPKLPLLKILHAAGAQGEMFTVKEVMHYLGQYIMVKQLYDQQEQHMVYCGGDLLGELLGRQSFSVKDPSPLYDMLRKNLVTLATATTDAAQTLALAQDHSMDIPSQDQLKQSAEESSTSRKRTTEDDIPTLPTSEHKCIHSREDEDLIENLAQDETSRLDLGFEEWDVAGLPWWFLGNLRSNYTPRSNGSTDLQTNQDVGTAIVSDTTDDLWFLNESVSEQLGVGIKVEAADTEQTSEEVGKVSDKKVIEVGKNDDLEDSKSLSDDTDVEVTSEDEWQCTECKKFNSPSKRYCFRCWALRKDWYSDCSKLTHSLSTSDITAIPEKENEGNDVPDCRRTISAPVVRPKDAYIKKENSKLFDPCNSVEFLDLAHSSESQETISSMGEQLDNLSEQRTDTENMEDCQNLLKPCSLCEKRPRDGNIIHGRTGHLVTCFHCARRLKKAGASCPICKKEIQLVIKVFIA
Procedure: g. Immunoprecipitation Experiments
Five million TC32 cells were treated with either 10 μM RG7388 or vehicle control for 4 h. Cells were lysed in buffer A (150 mM NaCl, 50 mM Tris, and 0.5% NP-40, pH 7.4) and combined with anti-MDM4 antibody (A300-287A; Bethyl Laboratories) in the presence of 20 μM RG7388, ATSP-7041, or vehicle control in a total volume of 1 ml, rotating at 4° C. for 16 h. Subsequently, 50 μl washed Protein AG beads (sc-2003; Santa Cruz) were added and the mixture was incubated for 1 h rotating at 4° C. Beads were washed three times in buffer A, and protein complexes were eluted by boiling in NuPage® LDS Sample Buffer (NP0007; Invitrogen) supplemented with DTT. Samples were analyzed by Western blot with antibodies against p53 DO-1 (sc-126; Santa Cruz) and MDM4 (A300-287A; Bethyl Laboratories).

[8] = TP53 wild-type Ewing sarcoma cell lines, micromolar concentrations

| Compound | phosphorylation of Serine 15 of p53 (pSer15-p53) ([1]; single agent) | Wip1 protein levels ([1]; time-dependent) | effect of TP53 knockout on the cytotoxic effect of the compound (viability) [2] | cell death measured by Annexin V staining [3] | cell viability, normalized to vehicle control [4, 8] | MDM2 protein levels, combination of ATSP-7041 and P5091 compared with ATSP-7041 alone [5] | MDM2 protein levels, combination of ATSP-7041 and P5091 compared with ATSP-7041 alone ([5]; listed as P0951) | p53 and p21 protein levels ([5]; TP53 wild-type cells TC32 and TC138, Western blot) | MDM2 protein levels [6] | MDM2 protein levels ([5]; TP53 wild-type cell lines TC32 and TC138, 1 μM, 4 h) | disruption of p53-MDM4 complex (MDM4 immunoprecipitation) [7] | cell viability, normalized to vehicle control ([4]; TC32 cells) |
| --- | --- | --- | --- | --- | --- | --- | --- | --- | --- | --- | --- | --- |
| Cc1ncc(Cl)cc1NCc1ccc(C(=O)N[C@@H](CC2CCCC2)C(=O)NC2CC2)s1 [GSK2830371, 5-[[(5-Chloro-2-methyl-3-pyridinyl)amino]methyl]-N-[(1S)-1-(cyclopentylmethyl)-2-(cycloprpylamino)-2-oxoethyl]-2-thiophenecarboxamide] | increased pSer15-p53; also recorded: triggered a surge in phosphorylation of Serine 15 of p53 | decreased protein levels of Wip1; also recorded: reduced the protein levels of Wip1 | less effective | triggers cell death; also recorded: GSK2830371-induced cell death | reduce viability; also recorded: notable increase in susceptibility | – | – | – | – | – | – | – |
| CC(=O)c1cc([N+](=O)[O-])c(Sc2cccc(Cl)c2Cl)s1 [P5091] | – | – | did not rescue | triggers cell death; also recorded: P5091-induced cell death | reduce viability; also recorded: relatively more cytotoxic | decreased MDM2 protein levels; also recorded: decreased the level of MDM2 protein | suppresses the feedback up-regulation of MDM2 | increase in p53 and p21 protein levels; also recorded: increased p53 and p21 protein levels in a time-dependent fashion | – | – | – | – |
| COc1cc(C(=O)O)ccc1NC(=O)[C@@H]1N[C@@H](CC(C)(C)C)[C@](C#N)(c2ccc(Cl)cc2F)[C@H]1c1cccc(Cl)c1F [RG7388] | – | – | – | – | – | – | – | – | no response; also recorded: no increase in MDM2 protein | increase in MDM2 protein levels | does not interrupt binding; also recorded: unable to dissociate | – |
| C[C@H](CC(=O)N1CCC(O)(Cn2cnc3cc(NC(=O)CCN4CCN(C)CC4)ccc3c2=O)CC1)c1ccccc1 [XL-188, (R)—N-(3-((4-hydroxy-1-(3-phenylbutanoyl)piperidin-4-yl)methyl)-4-oxo-3,4-dihydroquinazolin-7-yl)-3-(4-methylpiperazin-1-yl) propanamide] | – | – | completely reversed the cytotoxic effect | – | reduced viability predominantly in TP53 wild-type Ewing sarcoma cell lines | – | – | – | – | – | – | especially robust effect |
